For 13 compounds, IC50 results are on record in patent US9850283B2, “Macrocyclic inhibitors of the PD-1/PD-L1 and CD80(B7-1)/PD-L1 protein/protein interactions” (BRISTOL-MYERS SQUIBB COMPANY, priority 2013, dated 2017).

Structures are written as SMILES. Like-named read-outs stand apart in the source and are kept apart here. Starred links: 1 amine or outer side, 2 acyl side, 3 side chain; linkers in the order of their positions; H or OH if unused. Positions of bridges follow the written chain, without caps; N, C: chain ends. Non-standard residues stand in square brackets, D forms with d. Residues, ends and D or L forms follow the SMILES beside them. *: point of attachment. Phe(3,4,5-F3) = N[C@@H](Cc1cc(F)c(F)c(F)c1)C(=O)O; NHTrityl = c1ccc(C(N*)(c2ccccc2)c2ccccc2)cc1; NMe2Nal = CN[C@@H](Cc1ccc2ccccc2c1)C(=O)O; d(cisHyp) = O=C(O)[C@H]1C[C@@H](O)CN1; NMeF = CN[C@@H](Cc1ccccc1)C(=O)O; X4 = O=C([C@H]1COCCN1[*:1])[*:2]; 3Pal = N[C@@H](Cc1cccnc1)C(=O)O; dHyp = O=C(O)[C@H]1C[C@H](O)CN1; dNMeE = CN[C@H](CCC(=O)O)C(=O)O; NMeNle = CCCC[C@H](NC)C(=O)O; dPip = O=C(O)[C@H]1CCCCN1; Orn = NCCC[C@H](N)C(=O)O; dThz = O=C(O)[C@H]1CSCN1; OtBu = CC(C)(C)O*; Sar = CNCC(=O)O

In test [1] the target is T1, Human PD-L1/PD-1 (Homo sapiens, UniProt Q9NZQ7).
T1 construct: made in house; host or cells: HEK293T
T1 sequence (Q9NZQ7 with tags, fused parts or gaps): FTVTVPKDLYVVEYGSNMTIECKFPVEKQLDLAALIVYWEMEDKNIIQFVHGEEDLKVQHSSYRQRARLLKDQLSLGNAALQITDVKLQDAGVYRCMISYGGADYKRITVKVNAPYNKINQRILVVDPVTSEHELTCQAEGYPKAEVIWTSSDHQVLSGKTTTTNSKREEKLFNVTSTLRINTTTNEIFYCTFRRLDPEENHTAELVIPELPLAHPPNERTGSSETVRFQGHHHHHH
The test is described as follows: HTRF PD-1-Ig/PD-L1-His binding assay (human PD-L1). An outline of the steps:
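HTRF read-out: Eu cryptate anti-Ig mAb 1 nM final, APC anti-His mAb 20 nM final, added over the binding reaction. Proteins were PD-1-Ig and PD-L1-His ectodomain fusions. Buffer was dPBS, 0.1% BSA, 0.05% Tween-20.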
(In TR-FRET formats the signal depends on donor and acceptor labels being close together.)

Test [2] addresses T2, LK35.2-hPD-L1 cells / PE-labeled PD-1-Ig (Homo sapiens, UniProt Q9NZQ7).
T2 construct: expressed in transfected cells; host or cells: LK35.2 mouse B cell line
The test is described as follows: LK35.2-hPD-L1 cell binding high-content screening assay. In kind it is cell-based. The note with it: cell binding assay, cell line not given. An outline of the steps: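 Mouse LK35.2 B cells stably over-expressing human PD-L1, cultured overnight, treated with compound plus PE-labeled human PD-1-Ig (1 nM final) in RPMI/10% FCS for 1 h at 37 °C. After washing, bound fluorescence quantified by high-content imaging.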

Where [3] appears, read: cluster symbol, read-out: HTRF IC50 cluster.
Setting [4] is: cluster symbol, read-out: CBA IC50 cluster.
The mark [5] stands for this setting: value given instead of cluster, read-out: HTRF IC50 value.
[6] abbreviates: value given instead of cluster, read-out: CBA IC50 value.

T2 sequence (Q9NZQ7 19-290): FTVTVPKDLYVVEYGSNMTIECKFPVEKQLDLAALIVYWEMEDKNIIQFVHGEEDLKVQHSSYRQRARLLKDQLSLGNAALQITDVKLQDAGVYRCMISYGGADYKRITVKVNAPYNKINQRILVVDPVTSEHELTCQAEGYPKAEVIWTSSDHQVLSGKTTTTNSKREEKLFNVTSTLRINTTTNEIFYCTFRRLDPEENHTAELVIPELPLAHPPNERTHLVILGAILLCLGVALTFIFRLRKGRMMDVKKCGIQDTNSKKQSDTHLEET

Turning to `CCCC[C@H]1C(=O)N2C[C@H](O)C[C@@H]2C(=O)N[C@@H](CC(N)=O)C(=O)N[C@@H](C(C)C)C(=O)N(C)[C@@H](Cc2ccccc2)C(=O)N[C@@H](Cc2ccc(O)cc2)C(=O)N2CCCC[C@@H]2C(=O)N[C@@H](Cc2c[nH]c3ccccc23)C(=O)N[C@@H](Cc2ccc(O)cc2)C(=O)N[C@@H](CCCCN)C(=O)N[C@H](C(=O)NCC(N)=O)CSCC(=O)N[C@@H](Cc2cc(F)c(F)c(F)c2)C(=O)N(C)[C@@H](Cc2ccccc2)C(=O)N1C` [Example 3589] ({CH2CO}-[Phe(3,4,5-F3)][NMeF][NMeNle][d(cisHyp)]NV[NMeF]Y[dPip]WYKCG-NH2; thioether N-13), the values for the concentration for half-maximal inhibition (IC50) in test [1] (setting [3]) and in test [2] (setting [4]) were 0.385 to 6.74 nM and 0.158 to 4.71 nM, respectively.
For `CCCC[C@H]1C(=O)N2C[C@@H](O)C[C@@H]2C(=O)N[C@@H](CC(N)=O)C(=O)N[C@@H](C(C)C)C(=O)N(C)[C@@H](Cc2ccccc2)C(=O)N[C@@H](Cc2ccc(O)cc2)C(=O)N2CCCC[C@@H]2C(=O)N[C@@H](Cc2c[nH]c3ccccc23)C(=O)N[C@@H](Cc2ccc(O)cc2)C(=O)N[C@@H](CCCCN)C(=O)N[C@H](C(=O)NCC(N)=O)CSCC(=O)N[C@@H](Cc2cc(F)c(F)c(F)c2)C(=O)N(C)[C@@H](Cc2ccccc2)C(=O)N1C` [Example 3591] ({CH2CO}-[Phe(3,4,5-F3)][NMeF][NMeNle][dHyp]NV[NMeF]Y[dPip]WYKCG-NH2; thioether N-13), in that order: 0.385 to 6.74 nM and 0.158 to 4.71 nM.
For the compound `CCCC[C@H]1C(=O)N(C)[C@H](CCC(=O)O)C(=O)N[C@@H](CC(N)=O)C(=O)N[C@@H](C(C)C)C(=O)N(C)[C@@H](Cc2ccccc2)C(=O)N[C@@H](Cc2ccc(O)cc2)C(=O)N2CCCC[C@@H]2C(=O)N[C@@H](Cc2c[nH]c3ccccc23)C(=O)N[C@@H](Cc2ccc(O)cc2)C(=O)N[C@@H](CCCCN)C(=O)N[C@H](C(=O)NCC(N)=O)CSCC(=O)N[C@@H](Cc2ccccc2)C(=O)N(C)[C@@H](Cc2ccccc2)C(=O)N1C` [Example 3593] ({CH2CO}-F[NMeF][NMeNle][dNMeE]NV[NMeF]Y[dPip]WYKCG-NH2; thioether N-13), the half-maximal inhibitory concentration (IC50) in test [1] (setting [3]) was 0.385 to 6.74 nM; in test [2] (setting [4]) it was 0.158 to 4.71 nM.
The like results for `CCCC[C@H]1C(=O)N2C[C@H](O)C[C@@H]2C(=O)N[C@@H](CC(N)=O)C(=O)N[C@@H](C(C)C)C(=O)N(C)[C@@H](Cc2ccccc2)C(=O)N[C@@H](Cc2ccc(O)cc2)C(=O)N(C)[C@H](CCC(=O)O)C(=O)N[C@@H](Cc2c[nH]c3ccccc23)C(=O)N[C@@H](Cc2ccc(O)cc2)C(=O)N[C@@H](CCCCN)C(=O)N[C@H](C(=O)NCC(N)=O)CSCC(=O)N[C@@H](Cc2ccccc2)C(=O)N(C)[C@@H](Cc2ccccc2)C(=O)N1C` [Example 3594] ({CH2CO}-F[NMeF][NMeNle][d(cisHyp)]NV[NMeF]Y[dNMeE]WYKCG-NH2; thioether N-13) were, in that order, 6.76 to 30.3 nM and 0.158 to 4.71 nM.
For `CCCC[C@H]1C(=O)N2C[C@H](O)C[C@@H]2C(=O)N[C@H](CC(=O)NC(c2ccccc2)(c2ccccc2)c2ccccc2)C(=O)N[C@@H](C(C)C)C(=O)N(C)[C@@H](Cc2ccccc2)C(=O)N[C@@H](Cc2ccc(O)cc2)C(=O)N(C)[C@H](CCC(=O)O)C(=O)N[C@@H](Cc2c[nH]c3ccccc23)C(=O)N[C@@H](Cc2ccc(O)cc2)C(=O)N[C@@H](CCCCN)C(=O)N[C@H](C(=O)NCC(N)=O)CSCC(=O)N[C@@H](Cc2ccccc2)C(=O)N(C)[C@@H](Cc2ccccc2)C(=O)N1C` [Example 3595] ({CH2CO}-F[NMeF][NMeNle][d(cisHyp)][dD](NHTrityl)V[NMeF]Y[dNMeE]WYKCG-NH2; thioether N-13), the IC50 in test [1] (HTRF IC50 value, value given instead of cluster) was determined as 991 nM; in test [2] (CBA IC50 value, value given instead of cluster), 123 nM.
With `CCCC[C@H]1C(=O)N2C[C@H](O)C[C@@H]2C(=O)N[C@@H](CC(N)=O)C(=O)N[C@@H](C(C)C)C(=O)N(C)[C@@H](Cc2ccccc2)C(=O)N[C@@H](Cc2ccc(O)cc2)C(=O)N(C)[C@H](CCC(=O)O)C(=O)N[C@@H](Cc2c[nH]c3ccccc23)C(=O)N[C@@H](Cc2ccc(O)cc2)C(=O)N[C@@H](CCCCN)C(=O)N[C@H](C(=O)NCC(N)=O)CSCC(=O)N[C@@H](Cc2cc(F)c(F)c(F)c2)C(=O)N(C)[C@@H](Cc2ccccc2)C(=O)N1C` [Example 3596] ({CH2CO}-[Phe(3,4,5-F3)][NMeF][NMeNle][d(cisHyp)]NV[NMeF]Y[dNMeE]WYKCG-NH2; thioether N-13), the 50% inhibitory concentration (IC50) in test [1] (setting [3]) lay within 6.76 to 30.3 nM; in test [2] (setting [4]), 0.158 to 4.71 nM.
Turning to `CCCC[C@H]1C(=O)N2C[C@H](O)C[C@@H]2C(=O)N[C@@H](CC(=O)O)C(=O)N[C@@H](C(C)C)C(=O)N(C)[C@@H](Cc2ccccc2)C(=O)N[C@@H](CCCN)C(=O)N2CCOC[C@@H]2C(=O)N[C@@H](Cc2c[nH]c3ccccc23)C(=O)N[C@@H](Cc2ccc(O)cc2)C(=O)N[C@@H](CCCN)C(=O)N[C@H](C(=O)NCC(N)=O)CSCC(=O)N[C@@H](Cc2cc(F)c(F)c(F)c2)C(=O)N(C)[C@@H](Cc2ccccc2)C(=O)N1C` [Example 3598] ({CH2CO}-[Phe(3,4,5-F3)][NMeF][NMeNle][d(cisHyp)]DV[NMeF][Orn][X4]WY[Orn]CG-NH2; thioether N-13), the 50% inhibitory concentration (IC50) in test [1] (setting [3]) fell in the range of 0.385 to 6.74 nM; in test [2] (setting [4]) it was 0.158 to 4.71 nM.
For the compound `CCCC[C@H]1C(=O)N2C[C@H](O)C[C@@H]2C(=O)N[C@@H](CC(=O)O)C(=O)N[C@@H](C(C)C)C(=O)N(C)[C@@H](Cc2ccccc2)C(=O)N[C@@H](CCC(=O)O)C(=O)N2CCOC[C@@H]2C(=O)N[C@@H](Cc2c[nH]c3ccccc23)C(=O)N[C@@H](Cc2ccc(O)cc2)C(=O)N[C@@H](CCCN)C(=O)N[C@H](C(=O)NCC(N)=O)CSCC(=O)N[C@@H](Cc2cc(F)c(F)c(F)c2)C(=O)N(C)[C@@H](Cc2ccccc2)C(=O)N1C` [Example 3599] ({CH2CO}-[Phe(3,4,5-F3)][NMeF][NMeNle][d(cisHyp)]DV[NMeF]E[X4]WY[Orn]CG-NH2; thioether N-13), the values for the concentration for half-maximal inhibition (IC50) in test [1] (setting [3]) and in test [2] (setting [4]) were 0.385 to 6.74 nM and 0.158 to 4.71 nM, respectively.
Take `CCCC[C@H]1C(=O)N2CSC[C@@H]2C(=O)N[C@@H](CC(=O)O)C(=O)N[C@@H](C(C)C)C(=O)N(C)[C@@H](Cc2ccccc2)C(=O)N[C@@H](Cc2ccc(O)cc2)C(=O)N(C)CC(=O)N[C@@H](Cc2c[nH]c3ccccc23)C(=O)N[C@@H](Cc2ccc(O)cc2)C(=O)N[C@@H](CC(C)C)C(=O)N[C@H](C(=O)NCC(N)=O)CSCC(=O)N[C@@H](Cc2ccccc2)C(=O)N(C)[C@@H](Cc2ccccc2)C(=O)N1C` [Example 3600] ({CH2CO}-F[NMeF][NMeNle][dThz]DV[NMeF]Y[Sar]WYLCG-NH2; thioether N-13): the half-inhibitory concentration (IC50) was 6.1 nM in test [1] (setting [5]) and 3.9 nM in test [2] (setting [6]).
As to `CCCC[C@H]1C(=O)N(C)CC(=O)N[C@@H](CC(=O)O)C(=O)N[C@@H](C(C)C)C(=O)N(C)[C@@H](Cc2ccccc2)C(=O)N[C@@H](Cc2ccc(O)cc2)C(=O)N2CSC[C@@H]2C(=O)N[C@@H](Cc2c[nH]c3ccccc23)C(=O)N[C@@H](Cc2ccc(O)cc2)C(=O)N[C@@H](CC(C)C)C(=O)N[C@H](C(=O)NCC(N)=O)CSCC(=O)N[C@@H](Cc2ccccc2)C(=O)N(C)[C@@H](Cc2ccccc2)C(=O)N1C` [Example 3601] ({CH2CO}-F[NMeF][NMeNle][Sar]DV[NMeF]Y[dThz]WYLCG-NH2; thioether N-13), the IC50 turned out to be 6.91 nM in test [1] (setting [5]) and 1.79 nM in test [2] (setting [6]).
Take `CCCC[C@H]1C(=O)N(C)CC(=O)N[C@@H](CC(=O)O)C(=O)N[C@@H](C(C)C)C(=O)N(C)[C@@H](Cc2ccccc2)C(=O)N[C@@H](Cc2ccc(O)cc2)C(=O)N(C)CC(=O)N[C@@H](Cc2c[nH]c3ccccc23)C(=O)N[C@@H](Cc2ccc(O)cc2)C(=O)N[C@@H](CC(C)C)C(=O)N[C@H](C(=O)NCC(N)=O)CSCC(=O)N[C@@H](Cc2ccccc2)C(=O)N[C@@H](Cc2cccnc2)C(=O)N1C` [Example 3602] ({CH2CO}-F[3Pal][NMeNle][Sar]DV[NMeF]Y[Sar]WYLCG-NH2; thioether N-13): the IC50 in test [1] (setting [3]) is 6.76 to 30.3 nM; in test [2] (setting [4]), above 74.3 nM.
For `CCCC[C@H]1C(=O)N(C)CC(=O)N[C@@H](CC(N)=O)C(=O)N[C@@H](C(C)C)C(=O)N(C)[C@@H](Cc2ccccc2)C(=O)N[C@@H](Cc2ccc(O)cc2)C(=O)N(C)CC(=O)N[C@@H](Cc2c[nH]c3ccccc23)C(=O)N[C@@H](Cc2ccc(O)cc2)C(=O)N[C@@H](CCCN)C(=O)N[C@H](C(=O)NCC(N)=O)CSCC(=O)N[C@@H](Cc2ccccc2)C(=O)N(C)[C@@H](Cc2ccc3ccccc3c2)C(=O)N1C` [Example 3603] ({CH2CO}-F[NMe2Nal][NMeNle][Sar]NV[NMeF]Y[Sar]WY[Orn]CG-NH2; thioether N-13), in that order: 6.76 to 30.3 nM and 4.78 to 72.9 nM.
The like results for `CCCC[C@H]1C(=O)N(C)CC(=O)N[C@@H](CC(=O)OC(C)(C)C)C(=O)N[C@@H](C(C)C)C(=O)N(C)[C@@H](Cc2ccccc2)C(=O)N[C@@H](Cc2ccc(O)cc2)C(=O)N(C)CC(=O)N[C@@H](Cc2c[nH]c3ccccc23)C(=O)N[C@@H](Cc2ccc(O)cc2)C(=O)N[C@@H](CC(C)C)C(=O)N[C@H](C(=O)NCC(N)=O)CSCC(=O)N[C@@H](Cc2ccccc2)C(=O)N[C@@H](Cc2cccnc2)C(=O)N1C` [Example 3604] ({CH2CO}-F[3Pal][NMeNle][Sar]D(OtBu)V[NMeF]Y[Sar]WYLCG-NH2; thioether N-13) were, in that order, above 30.5 nM and above 74.3 nM.

The term IC50 denotes the midpoint of a concentration-inhibition curve.
